Measurements published in patent US20180008570A1, “METHOD OF TREATMENT OF A NEUROPATHIC PAIN” (CHAOYANG UNIVERSITY OF TECHNOLOGY, priority 2016, published 2018).
“Also recorded” adds a separate entry of the source. Counter-ions that a name gives are not always drawn.

Legend:
[1] = test system: male BALB/c mice with sciatic nerve transaction; assay: Von Frey test, hindpaw withdrawal threshold in sciatic nerve transaction (SNT) neuropathic pain model; assay type: in vivo
Experimental: (§1) Lyophilized andrographolide powder is dissolved in DMSO and subsequently diluted to 2.86 mM (1 mg/mL) in 90% normal saline and 10% DMSO for storage. The mixture is injected into the peritoneum (body cavity) of each animal (intraperitoneal injection) based on 5 mg/kg animal weight, for example, a 30 g mouse is injected with 150 μL of saline containing 0.15 mg of andrographolide. NSAID drugs (Diclofenac sodium salt) may be purchased from Sigma (D6899), and diluted to 2.86 mM (0.91 mg/mL) in 90% saline and 10% DMSO for storage. The NSAID drugs is administered via intraperitoneal injection based on […] animal weight, for example, a 30 g mouse is injected with 165 μL of saline containing 0.15 mg of NSAID drugs. The number of molecules administered is less in andrographolide treated mouse than in NSAID drugs treated […]. These drugs are administered daily after surgery.
(§2) An operation for inducing the sciatic nerve transaction of BALB/c mice is processing as follows. After isoflurane anesthesia is applied to male BALB/c mice, which have about 8 weeks of age and have a weight of approximately 30 g, the skin of the right thigh is slit to expose the muscle. Then a blunt instrument is used to spread open the biceps femoris to expose the sciatic nerve and its three nerve branches, which are the sural nerve, common peroneal nerve and tibial nerve. Then a sterilized no. 4-0 chromium wire is used to tie the sciatic nerve, and approximately 2-4 mm of the ends of the common peroneal nerve and the tibial nerve are cut at a position near the tying position. Care is taken to avoid touching and stretching the sural nerve. The muscle and skin are closed in two separate layers. For sham surgery, the sciatic nerve is exposed as described above but no contact is made with the nerve. In this embodiment, the nerve is tied to a level such that there is slight sheathing of the nerve in order to avoid affecting the blood circulation in the area. The mice's behavior is observed after several days of rest.
(§3) The experiment is separated into the following groups that receive different treatments. In the normal group, no surgery is carried out and no andrographolide or NSAID drugs are administered to mice. In the pain group (OP-saline), saline is given to mice daily after surgery. In the control group (Op-NSAIDs), Diclofenac sodium salt is administered to mice daily after surgery. In the experimental group (Op-AP), an andrographolide compound is administered to mice daily after surgery. The means of administration is by intraperitoneal injection. The concentration of drugs for both the control group and the experimental group is 5 mg/kg animal weight, and the average animal weight is 30 g. For the model that uses an in vivo sciatic nerve transaction to simulate pathological pain, the mice behavior is tested on 3, 7, 14 days after surgery. The von Frey hair test is used to determinate the withdrawal threshold of the pathological pain.
Mechanical allodynia threshold at the lateral plantar surface of the hindpaw is assessed before nerve injury (as basal pain threshold) and then testing began on day 3 after surgery and continued for 7 and 14 days after surgery. Mechanical sensitivity is determined by measuring the withdrawal thresholds and reaction ratio to von Frey hairs (Stoelting, Wood Dale, Ill.) using the up and- down method (Dixon 1980) as described by Chaplan (Chaplan, Bach et al. 1994). Animals were placed in a plastic cage with a wire net floor and were allowed to habituate 10-15 min before testing began. Animals were also habituated over a period of 2-3 consecutive days by recording a series of baseline measurements. The filaments were applied in ascending order, each 5 times at an interval of 2-3 s to the plantar surface of the hindpaw (Bourquin, Suveges et al. 2006) and the smallest filament eliciting a foot withdrawal response is considered the threshold stimulus. […]

[2] = test system: male BALB/c mice with sciatic nerve transaction; assay: Von Frey test, withdrawal rate (reaction types II-IV) with 0.02 g and 0.07 g fibers in SNT neuropathic pain model; assay type: in vivo; conditions: 5 mg/kg i.p. daily; for withdrawal rate, von Frey fiber of 0.02 g, right hindpaw: 3, 7 and 14 days after surgery
Experimental: as §1, §2, §3
Mechanical allodynia threshold at the lateral plantar surface of the hindpaw is assessed before nerve injury (as basal pain threshold) and then testing began on day 3 after surgery and continued for 7 and 14 days after surgery. Mechanical sensitivity is determined by measuring the withdrawal thresholds and reaction ratio to von Frey hairs (Stoelting, Wood Dale, Ill.) using the up and- down method (Dixon 1980) as described by Chaplan (Chaplan, Bach et al. 1994). […]

[3] = test system: glial fibrillary acidic protein (GFAP); assay: GFAP immunoreactivity in spinal cord astrocytes (L4-L6), immunohistochemical staining and quantification; assay type: in vivo, mice; conditions: 5 mg/kg i.p. daily; 7 days after surgery; compared to OP-saline group
Experimental: The following procedure is to ascertain the activity of astrocytic glial cells of the spinal cord. The mice are deeply anaesthetized with sevoflurane and perfused transcardially with saline followed by 0.1 M phosphate buffer solution containing 4% paraformaldehyde. The L4-L6 segment of spinal cord and left and right sciatic nerves are dissected out and post-fixed in a 4% parformaldehye solution at 4° C. overnight, and transferred to a series of solution of phosphate-buffered saline (PBS), graded ethanol/PBS, xylyne, graded xylyne/wax mixture, and finally embedded in wax. A rotary slicer for tissues is used to slice the sample to a transverse section with a thickness of 3 um, and warm water is used to spread and attach to the glass slice.
The wax sections are dewaxed in a series of xylene, graded xylene/ethanol mixture, or graded ethanol mixture, and finally incubation in PBS. […]
The immunoreactivity in each group is analyzed, and the intensity of chromogen staining or fluorescence is determined by photo form 4-5 independent animals. The image of the photo is analyzed using the same settings for quantitative comparison. All measured pixels in a specific area are analyzed by the ImageJ software on 0 (black) to 255 (white) scales. The total number of pixels having a value less than 50 in the photo is calculated and used to estimate the value of immunoreactivity in the area of interest.

Row | SMILES | left hindpaw withdrawal threshold (contralateral, mirror pain), persistence of higher threshold ([1]; 5 mg/kg i.p. daily, 7-14 days post-operation, compared to saline group) | left hindpaw withdrawal threshold (contralateral, mirror pain) ([1]; 5 mg/kg i.p. daily, 3 days after surgery, compared to saline group) | withdrawal rate, von Frey fiber of 0.02 g, right hindpaw ([2]; compared with Op-NSAID group) | withdrawal rate, von Frey fiber of 0.02 g, right hindpaw ([2]; compared with Op-saline group) | withdrawal rate, fiber of 0.07 g, difference to Op-NSAID group ([2]; 7-14 days after surgery) | withdrawal rate, fiber of 0.07 g, difference to Op-NSAID group ([2]; 3 days after surgery) | withdrawal rate, fiber of 0.07 g ([2]; compared to Op-saline group) | GFAP immunoreactivity of the astrocytes, L4-L6 spinal area [3] | right hindpaw withdrawal threshold ([1]; 5 mg/kg i.p. daily after surgery, 3, 7 and 14 days after surgery, compared to OP-saline group) | left hindpaw withdrawal threshold (contralateral, mirror pain) ([1]; 5 mg/kg i.p. daily, 3, 7 and 14 days after surgery, compared to saline group and NSAIDs group) | right hindpaw withdrawal threshold, effect compared with NSAID drugs ([1]; 5 mg/kg i.p. daily, 3 and 14 days after surgery, vs Op-NSAIDs (Diclofenac sodium salt)) | degree of relief from mechanical allodynia compared with same dose of NSAID drugs ([1]; 5 mg/kg i.p. daily, overall summary)
1 | O=C(O)Cc1ccccc1Nc1c(Cl)cccc1Cl [NSAIDS, Diclofenac sodium salt, reference compound] | does not sustain | higher (although not significant) |  |  |  |  |  |  |  |  |  | 
2 | C=C1CC[C@@H]2[C@](C)(CO)[C@H](O)CC[C@@]2(C)[C@@H]1C/C=C1/C(=O)OC[C@H]1O [andrographolide] |  |  | very significant lower | very significant low | significant | not significant | reduced pain sensation | reduced trend | significantly increased; also recorded: significant increase | significantly increased | more significant effect | better
